Laboratory results: the supplement of paper PMC5579334

Tests used:
[1] = tested on: YST-1; assay: % inhibition of CellTiter-Glo viability at highest tested concentration (72 h), relative to DMSO and benzethonium chloride controls; higher = more inhibition
How it was run: (§1)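 After seeding 750–1000 cells per well of MPNST cell lines or primary human Schwann cells into 384-well plates preprinted with each compound at five concentrations in 10-fold steps, plates were kept 72 h at 37 °C, 5% CO2. Viability was read as CellTiter-Glo ATP luminescence relative to vehicle and positive-control wells, with duplicates averaged where present. The data were fitted with four-parameter logistic models. Drug sensitivity score and relative IC50, censored at the top concentration, derive from the fits, and percent inhibition refers to the top concentration.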

[2] = tested on: HS-PSS; assay: as above
How it was run: as §1

[3] = tested on: HS-Sch-2; assay: as above
How it was run: as §1

[4] = tested on: YST-1; assay: drug sensitivity score (DSS, CellTiter-Glo viability, 72 h) (DSS (dimensionless)); higher = more sensitive; extreme values may be limits of the assay
How it was run: as §1

[5] = tested on: HS-PSS; assay: as above
How it was run: as §1

[6] = tested on: HS-Sch-2; assay: as above
How it was run: as §1

[7] = tested on: HS-PSS; assay: drug sensitivity score (DSS, CellTox-Green cytotoxicity, 72 h) (DSS (dimensionless)); higher = more cytotoxic; extreme values may be limits of the assay
How it was run: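 For 72 h at 37 °C, MPNST cell lines and primary human Schwann cells were exposed in 384-well plates to five 10-fold compound dilutions. CellTox-Green, added before seeding at a final 1:1000 dilution, gave fluorescence from DNA released by disrupted cells. Signals were scaled to vehicle and positive-control wells, cultures failing plate quality control were left out, and four-parameter logistic fits were applied. Relative IC50 and drug sensitivity score were derived from the fits, with IC50 censored at the top concentration.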

| Compound | % inhibition [1] | % inhibition [2] | % inhibition [3] | drug sensitivity score [4] | drug sensitivity score [5] | drug sensitivity score [6] | drug sensitivity score [7] |
| --- | --- | --- | --- | --- | --- | --- | --- |
| COc1cc(Br)c(Nc2nc(-c3c(C)nc4ncccn34)cs2)c(Br)c1 [PTC-209] (max concentration tested 10000 nM) | 94.4% | 84.8% | 81% | 6.29 | 7.63 | 7.96 | 0 |
| CO[C@H]1C(=O)[C@]2(C)[C@@H](OC)C[C@H]3OC[C@@]3(OC(C)=O)[C@H]2[C@H](OC(=O)c2ccccc2)[C@]2(O)C[C@H](OC(=O)[C@H](O)[C@@H](NC(=O)OC(C)(C)C)c3ccccc3)C(C)=C1C2(C)C [Cabazitaxel] (max concentration tested 1000 nM) | 74% | 41.5% | 93.5% | 30.7 | 1.5 | 33.6 | 0.1 |
| Cc1cc(-c2ncc(-c3cccnc3)cc2/C=C/c2ccccc2)cnc1-c1cccnc1 [Pyridoclax] (max concentration tested 25000 nM) | 62.7% | 9.44% | 19.9% | 16.5 | 0.36 | 1.52 | 0 |
| Cc1cc(C)c(CNC(=O)c2cc(-c3ccc(CN4CCOCC4)cc3)cc3c2cnn3C2CCCC2)c(=O)[nH]1 [EPZ-5687] (max concentration tested 10000 nM) | 1.37% | -1.01% | -5.4% | 0 | 0 | 0 | 0 |
| c1cn2cc(-c3ccc4cn[nH]c4c3)nc(Nc3ccc(N4CCOCC4)cc3)c2n1 [Entospletinib] (max concentration tested 5000 nM) | 12% | -4.13% | -16% | 0.45 | 0 | 0.89 | 0.89 |
| CC(C)Oc1ccc(C(=O)N[C@H](CNC(=O)CN(C)C)Cc2ccc(-c3cn4cccc([C@H](C)O)c4n3)cc2)cc1Cl (max concentration tested 10000 nM) | 62% | 66.7% | 95.2% | 19.5 | 8.56 | 24.1 | 1.48 |
| CN1CCN(C2CCN(C(=O)Nc3cc(Oc4ccc(NC(=O)C5(C(=O)Nc6ccc(F)cc6)CC5)c(F)c4)ccn3)CC2)CC1 [Golvatinib] (max concentration tested 2500 nM) | 17.2% | 23.6% | 19.2% | 1.35 | 0.68 | 0.68 | 0 |
| O=c1[nH]c(C2CCCN2)nc2c1oc1ccc(Cl)cc12 (configuration not stated) (max concentration tested 10000 nM) | 63.8% | 33.3% | 19.3% | 6.83 | 2.86 | 2.7 | 0 |
| CCOc1ccn(-c2ccc(F)cc2)c(=O)c1C(=O)Nc1ccc(Oc2ccnc(N)c2Cl)c(F)c1 (max concentration tested 2500 nM) | 2.08% | 15.6% | 4.22% | 0 | 1.43 | 0 | 0 |
| CCCCc1nc2cc(/C=C/C(=O)NO)ccc2n1CCN(CC)CC [Pracinostat] (max concentration tested 10000 nM) | 100% | 94% | 101% | 22 | 12.4 | 15.9 | 6.63 |
| CC(C)CC(=O)Nc1n[nH]c2c1CN(C(=O)C1CCN(C)CC1)C2(C)C (max concentration tested 10000 nM) | 99.8% | 83.7% | 101% | 11.8 | 11.5 | 10.2 | 2.57 |
| O=c1cc(N2CCOCC2)oc2c(-c3ccccc3)cccc12 (max concentration tested 100000 nM) | 96.1% | 69.6% | 72.3% | 12 | 7.1 | 7.3 | 2.67 |
| CC(=O)c1cnc2ccc(-c3cc(Cl)c(O)c(Cl)c3)nc2c1N[C@H]1CC[C@H](CN(C)C)CC1 [OTSSP167] (max concentration tested 1000 nM) | 100% | 83.1% | 101% | 23.8 | 4.33 | 18.5 | 0.29 |
| CCc1c2c(nc3ccc(O)cc13)-c1cc3c(c(=O)n1C2)COC(=O)[C@]3(O)CC [SN-38] (max concentration tested 10000 nM) | 99.7% | 77.9% | 100% | 36.9 | 22.9 | 36.1 | 20.4 |
| COc1cc(N2CCC(N3CCN(C)CC3)CC2)ccc1Nc1ncnc(Nc2ccccc2S(=O)(=O)C(C)C)n1 [ASP3026] (max concentration tested 10000 nM) | -4.61% | 2.45% | 4.73% | 0 | 0 | 0 | 0 |
| CC(C)N(C[C@H]1O[C@@H](n2cnc3c(N)ncnc32)[C@H](O)[C@@H]1O)[C@H]1C[C@@H](CCc2nc3cc(C(C)(C)C)ccc3[nH]2)C1 [Pinometostat] (max concentration tested 1000 nM) | -2.52% | 5.45% | -7.39% | 0 | 0 | 0 | 0 |
